Data: US20230146455A1, “TREATMENT OF INFLAMMATORY DISEASES WITH PEPTIDES AND PHARMACEUTICAL COMPOSITIONS” (Yuyu Pharma, Inc., priority 2020, published 2023)
Where “and” joins values, the source holds several entries; their conditions need not be identical. Identical values can stand only once. Where a SMILES comes first, the peptide text is derived from it. [ ]: non-standard residue; d: D form. Hyp = O=C(O)[C@@H]1C[C@@H](O)CN1

Legend:
IL-1 beta/IL-1F2 = experiment: Example 9 Luminex, LPS hPBMCs: IL-1 beta/IL-1F2; format: cell-based, human
Method: (§1) Treatment Human PBMCs were pretreated with YY-101, YDE-011 and YDE-043 or reference compound; Xiidra® at various concentration (ranging from 1 nM to 100 uM) for 2 h before stimulation. An equal volume of 0.5% DMSO was used as a vehicle control. Then, the cells were treated with LPS at 5 ug/ml. The supernatants from treated cells were harvested at 24 h and placed in a 96 well for Luminex cytokine & chemokine profiling using a Luminex 200 multiplex assay (Luminex; R&D system, USA).
(§2) The main study arm with triplicate wells per group in a 24-well plate: • 1. Blank • 2. PBMC: 0.5% DMSO • 3. PBMC+LPS (5 ug/ml) • 4. PBMC+YY-101 100 uM • 5. PBMC+YY-101 10 uM • 6. PBMC+YY-101 1 uM • 7. PBMC+YY-101 0.1 uM • 8. PBMC+YY-101 0.01 uM • 9. PBMC+LPS (5 ug/ml)+Xiidra®100 uM • 10. PBMC+LPS (5 ug/ml)+Xiidra® 10 uM • 11. PBMC+LPS (5 ug/ml)+Xiidra® 1 uM • 12. PBMC+LPS (5 ug/ml)+Xiidra®0.1 uM • 13. PBMC+LPS (5 ug/ml)+Xiidra®0.01 uM • 14. PBMC+LPS (5 ug/ml)+Xiidra®0.001 uM • 15. PBMC+LPS (5 ug/ml)+YY-101 100 uM • 16. PBMC+LPS (5 ug/ml)+YY-101 10 uM • 17. PBMC+LPS (5 ug/ml)+YY-101 1 uM • 18. PBMC+LPS (5 ug/ml)+YY-101 0.1 uM • 19. PBMC+LPS (5 ug/ml)+YY-101 0.01 uM • 20. PBMC+LPS (5 ug/ml)+YY-101 0.001 uM • 21. PBMC+LPS (5 ug/ml)+YDE-011 100 uM • 22. PBMC+LPS (5 ug/ml)+YDE-011 10 uM • 23. PBMC+LPS (5 ug/ml)+YDE-011 1 uM • 24. PBMC+LPS (5 ug/ml)+YDE-011 0.1 uM • 25. PBMC+LPS (5 ug/ml)+YDE-011 0.01 uM • 26. PBMC+LPS (5 ug/ml)+YDE-011 0.001 uM • 27. PBMC+LPS (5 ug/ml)+YDE-043 100 uM • 28. PBMC+LPS (5 ug/ml)+YDE-043 10 uM • 29. PBMC+LPS (5 ug/ml)+YDE-043 1 uM • 30. PBMC+LPS (5 ug/ml)+YDE-043 0.1 uM • 31. PBMC+LPS (5 ug/ml)+YDE-043 0.01 uM • 32. PBMC+LPS (5 ug/ml)+YDE-043 0.001 uM
(§3) Multiplex assay was used to measure 30 cytokines and chemokines. The 1:2, 1:10 and 1:200 diluted cell supernatant and serial dilution of the standard were dispensed into a 96 well plate at 50 ul/well. Then, the pre-mixed cocktail of antibody-coated magnetic beads was dispensed at 50 ul/well and incubated at room temperature for 2 h in a horizontal orbital microplate shaker at 800±500 rpm. The beads were washed using a magnetic device to prevent loss. The biotin-antibody was dispensed in 50 ul of each well and incubated at room temperature for 1 h in a shaker at 800±500 rpm. After washing, streptavidin-PE was added at 50 ul/well and incubated at room temperature for 30 min in a shaker under the same conditions. Finally, after washing, wash buffer (100 ul/well) was added to the plate and incubated in a shaker for 2 min. The Luminex™ 200 setting were set according to the manufacturer's protocol. The data was calculated with a standard five-parameter logistic nonlinear regression analysis of the data (xPonent software 4.2, USA). The levels of cytokine/chemokine are normalized to the live cell counts (1×10^5 cells/mL) and presented as concentrations per mL (pg/mL or ng/mL).

MMP-9 = experiment: Example 9 Luminex, LPS hPBMCs: MMP-9; format: cell-based, human
Method: as §1, §2, §3

[1] = PBMC + LPS(5 ug/ml) + test article 0.001 uM, Mean
[2] = PBMC + LPS(5 ug/ml) + test article 0.001 uM, single replicates
[3] = PBMC + LPS(5 ug/ml) + test article 0.01 uM, Mean
[4] = PBMC + LPS(5 ug/ml) + test article 0.01 uM, single replicates
[5] = PBMC + LPS(5 ug/ml) + test article 0.1 uM, Mean
[6] = PBMC + LPS(5 ug/ml) + test article 0.1 uM, single replicates
[7] = PBMC + LPS(5 ug/ml) + test article 1 uM, Mean
[8] = PBMC + LPS(5 ug/ml) + test article 1 uM, single replicates
[9] = PBMC + LPS(5 ug/ml) + test article 10 uM, Mean
[10] = PBMC + LPS(5 ug/ml) + test article 10 uM, single replicates
[11] = PBMC + LPS(5 ug/ml) + test article 100 uM, Mean
[12] = PBMC + LPS(5 ug/ml) + test article 100 uM, single replicates
[13] = PBMC + LPS(5 ug/ml) + 0.001 uM, Mean
[14] = PBMC + LPS(5 ug/ml) + 0.001 uM, single replicates
[15] = PBMC + LPS(5 ug/ml) + 0.01 uM, Mean
[16] = PBMC + LPS(5 ug/ml) + 0.01 uM, single replicates
[17] = PBMC + LPS(5 ug/ml) + 0.1 uM, Mean
[18] = PBMC + LPS(5 ug/ml) + 0.1 uM, single replicates
[19] = PBMC + LPS(5 ug/ml) + 1 uM, Mean
[20] = PBMC + LPS(5 ug/ml) + 1 uM, single replicates
[21] = PBMC + LPS(5 ug/ml) + 10 uM, Mean
[22] = PBMC + LPS(5 ug/ml) + 10 uM, single replicates
[23] = PBMC + LPS(5 ug/ml) + 100 uM, Mean
[24] = PBMC + LPS(5 ug/ml) + 100 uM, single replicates

CC(C)C[C@H](NC(=O)[C@H](CCC(N)=O)NC(=O)CNC(=O)[C@@H]1C[C@@H](O)CN1)C(=O)NCC(=O)O [YDE-043] (H-[Hyp]GQLG-OH; N-terminus and C-terminus assumed) gave a Concentration (IL-1 beta/IL-1F2; [1]) of 6632.8 pg/mL, an MFI (IL-1 beta/IL-1F2; [1]) of 1711.8 and a conc/live cell (IL-1 beta/IL-1F2; [1]) of 1343.9 pg/10^5. The Concentration (IL-1 beta/IL-1F2; [2]) was 6369.5 pg/mL and 7037.7 pg/mL and 6491.1 pg/mL, the MFI (IL-1 beta/IL-1F2; [2]) was 1640.5 and 1821.5 and 1673.5 and the conc/live cell (IL-1 beta/IL-1F2; [2]) was 1447.6 pg/10^5 and 1173.0 pg/10^5 and 1411.1 pg/10^5. For the same compound, the Concentration (IL-1 beta/IL-1F2; [3]) was 6569.2 pg/mL, the MFI (IL-1 beta/IL-1F2; [3]) was 1694.7 and the conc/live cell (IL-1 beta/IL-1F2; [3]) was 1253.9 pg/10^5. For the same compound, the Concentration (IL-1 beta/IL-1F2; [4]) was 6432.1 pg/mL and 6655.2 pg/mL and 6620.2 pg/mL, the MFI (IL-1 beta/IL-1F2; [4]) was 1657.5 and 1718.0 and 1708.5 and the conc/live cell (IL-1 beta/IL-1F2; [4]) was 1429.4 pg/10^5 and 1008.4 pg/10^5 and 1324.0 pg/10^5. The Concentration (IL-1 beta/IL-1F2; [5]) was 6324.2 pg/mL, the MFI (IL-1 beta/IL-1F2; [5]) was 1628.2 and the conc/live cell (IL-1 beta/IL-1F2; [5]) was 1172.5 pg/10^5. The Concentration (IL-1 beta/IL-1F2; [6]) was 6049.3 pg/mL and 6384.2 pg/mL and 6539.0 pg/mL, the MFI (IL-1 beta/IL-1F2; [6]) was 1553.5 and 1644.5 and 1686.5 and the conc/live cell (IL-1 beta/IL-1F2; [6]) was 1209.9 pg/10^5 and 1140.0 pg/10^5 and 1167.7 pg/10^5. The Concentration (IL-1 beta/IL-1F2; [7]) was 6195.3 pg/mL, the MFI (IL-1 beta/IL-1F2; [7]) was 1593.2 and the conc/live cell (IL-1 beta/IL-1F2; [7]) was 1173.7 pg/10^5. For the same compound, the Concentration (IL-1 beta/IL-1F2; [8]) was 6303.2 pg/mL and 5942.7 pg/mL and 6340.0 pg/mL, the MFI (IL-1 beta/IL-1F2; [8]) was 1622.5 and 1524.5 and 1632.5 and the conc/live cell (IL-1 beta/IL-1F2; [8]) was 1086.8 pg/10^5 and 1238.1 pg/10^5 and 1196.2 pg/10^5. The Concentration (IL-1 beta/IL-1F2; [9]) was 6556.9 pg/mL, the MFI (IL-1 beta/IL-1F2; [9]) was 1691.3 and the conc/live cell (IL-1 beta/IL-1F2; [9]) was 1214.7 pg/10^5. For the same compound, the Concentration (IL-1 beta/IL-1F2; [10]) was 6382.4 pg/mL and 6634.9 pg/mL and 6653.4 pg/mL, the MFI (IL-1 beta/IL-1F2; [10]) was 1644.0 and 1712.5 and 1717.5 and the conc/live cell (IL-1 beta/IL-1F2; [10]) was 1227.4 pg/10^5 and 1228.7 pg/10^5 and 1188.1 pg/10^5. It also gave a Concentration (IL-1 beta/IL-1F2; [11]) of 8209.5 pg/mL, an MFI (IL-1 beta/IL-1F2; [11]) of 2135.8 and a conc/live cell (IL-1 beta/IL-1F2; [11]) of 1304.8 pg/10^5. For the same compound, the Concentration (IL-1 beta/IL-1F2; [12]) was 8744.5 pg/mL and 7674.4 pg/mL, the MFI (IL-1 beta/IL-1F2; [12]) was 2278.5 and 1993.0 and the conc/live cell (IL-1 beta/IL-1F2; [12]) was 1410.4 pg/10^5 and 1199.1 pg/10^5. For the same compound, the “MMP-9 Concentration” value (MMP-9; [13]) was 222.6 pg/mL, the MMP-9 conc/live cell (MMP-9; [13]) was 45.0 pg/10^5 and the “MMP-9 Concentration” value (MMP-9; [14]) was 170.9 pg/mL and 234.0 pg/mL and 262.8 pg/mL. The MMP-9 conc/live cell (MMP-9; [14]) was 38.8 pg/10^5 and 39.0 pg/10^5 and 57.1 pg/10^5, the “MMP-9 Concentration” value (MMP-9; [15]) was 186.3 pg/mL and the MMP-9 conc/live cell (MMP-9; [15]) was 35.6 pg/10^5. The “MMP-9 Concentration” value (MMP-9; [16]) was 180.2 pg/mL and 186.3 pg/mL and 192.4 pg/mL, the MMP-9 conc/live cell (MMP-9; [16]) was 40.0 pg/10^5 and 28.2 pg/10^5 and 38.5 pg/10^5 and the “MMP-9 Concentration” value (MMP-9; [17]) was 173.9 pg/mL. For the same compound, the MMP-9 conc/live cell (MMP-9; [17]) was 32.4 pg/10^5, the “MMP-9 Concentration” value (MMP-9; [18]) was 192.4 pg/mL and 155.2 pg/mL and 174.0 pg/mL and the MMP-9 conc/live cell (MMP-9; [18]) was 38.5 pg/10^5 and 27.7 pg/10^5 and 31.1 pg/10^5. The “MMP-9 Concentration” value (MMP-9; [19]) was 178.0 pg/mL, the MMP-9 conc/live cell (MMP-9; [19]) was 33.5 pg/10^5 and the “MMP-9 Concentration” value (MMP-9; [20]) was 198.5 pg/mL and 155.2 pg/mL and 180.2 pg/mL. The MMP-9 conc/live cell (MMP-9; [20]) was 34.2 pg/10^5 and 32.3 pg/10^5 and 34.0 pg/10^5, the “MMP-9 Concentration” value (MMP-9; [21]) was 189.3 pg/mL and the MMP-9 conc/live cell (MMP-9; [21]) was 35.1 pg/10^5. For the same compound, the “MMP-9 Concentration” value (MMP-9; [22]) was 198.5 pg/mL and 192.4 pg/mL and 177.1 pg/mL, the MMP-9 conc/live cell (MMP-9; [22]) was 38.2 pg/10^5 and 35.6 pg/10^5 and 31.6 pg/10^5 and the “MMP-9 Concentration” value (MMP-9; [23]) was 139.0 pg/mL. The MMP-9 conc/live cell (MMP-9; [23]) was 22.1 pg/10^5, the “MMP-9 Concentration” value (MMP-9; [24]) was 148.8 pg/mL and 129.2 pg/mL and the MMP-9 conc/live cell (MMP-9; [24]) was 24.0 pg/10^5 and 20.2 pg/10^5.
